Each structure is given as a SMILES string. Where a name gives a salt, the structure may show the parent alone. Some results are limits rather than exact numbers.

What is called EC50 is the concentration that produces a half-maximal response.

The assay deals with T1, apelin receptor (APJ) (Homo sapiens, UniProt P35414).
T1 sequence (P35414 1-380): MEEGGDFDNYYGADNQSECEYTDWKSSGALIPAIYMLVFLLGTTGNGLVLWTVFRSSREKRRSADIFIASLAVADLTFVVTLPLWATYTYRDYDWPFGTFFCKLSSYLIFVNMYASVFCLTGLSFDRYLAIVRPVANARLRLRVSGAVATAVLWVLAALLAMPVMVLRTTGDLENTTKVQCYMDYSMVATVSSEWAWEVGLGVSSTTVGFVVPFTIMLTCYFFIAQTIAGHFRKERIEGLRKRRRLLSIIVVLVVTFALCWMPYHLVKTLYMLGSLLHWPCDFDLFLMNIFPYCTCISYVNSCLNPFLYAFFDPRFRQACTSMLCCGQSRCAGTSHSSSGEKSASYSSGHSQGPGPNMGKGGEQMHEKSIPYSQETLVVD
Kind of assay: In vitro apelin agonist activity (methods of Giddings et al., Apelin-13 as positive control). As to conditions: in vitro apelin agonist activity, methods of Giddings et al., Apelin-13 as positive control; read-out: EC50 (nM) Ave. In kind it is cell-based. From the text: Characterization of the Apelin Agonist Activity of the Compounds
1:39-47, the contents of which are hereby incorporated by reference in its entirety. Using the methods described in Giddings et al. and Apelin-13 as a positive control.
With `COc1cccc(OC)c1-c1cc(C(=O)N[C@@H](CCc2ccccc2)C(=O)NCc2nccs2)nn1C1CCCC1` [compound 388, (2S)-2-{[1-cyclopentyl-5-(2,6-dimethoxyphenyl)-1H-pyrazol-3-yl]formamido}-4-phenyl-N-(1,3-thiazol-2-ylmethyl)butanamide], the EC50 stood at 399 nM. Next, `COc1cccc(OC)c1-c1cc(C(=O)N[C@@H](CCc2ccccc2)C(=O)O)nn1C1CCCC1` [compound 389, (2S)-2-{[1-cyclopentyl-5-(2,6-dimethoxyphenyl)-1H-pyrazol-3-yl]formamido}-4-phenylbutanoic acid]: above 10000 nM; `COc1cccc(OC)c1-c1cc(C(=O)N[C@@H](CCc2ccccc2)Cc2nnn[nH]2)nn1C1CCCC1` [compound 390, 1-cyclopentyl-5-(2,6-dimethoxyphenyl)-N-[(2S)-4-phenyl-1-(1H-1,2,3,4-tetrazol-5-yl)butan-2-yl]-1H-pyrazole-3-carboxamide]: 429 nM; `COc1cccc(OC)c1-c1cc(C(=O)N[C@H](CC#N)CCc2ccccc2)nn1C1CCCC1` [compound 391, N-[(2S)-1-cyano-4-phenylbutan-2-yl]-1-cyclopentyl-5-(2,6-dimethoxyphenyl)-1H-pyrazole-3-carboxamide]: 6340 nM. As for `COc1cccc(OC)c1-c1cc(C(=O)N[C@@H](CCc2ccccc2)CC(N)=O)nn1C1CCCC1` [compound 392, (3S)-3-{[1-cyclopentyl-5-(2,6-dimethoxyphenyl)-1H-pyrazol-3-yl]formamido}-5-phenylpentanamide], the EC50 is above 10000 nM. Consider `COc1cccc(OC)c1-c1cc(C(=O)N[C@@H](CC2CCCC2)C(=O)O)nn1C1CCCC1` [compound 393, (2S)-3-cyclopentyl-2-{[1-cyclopentyl-5-(2,6-dimethoxyphenyl)-1H-pyrazol-3-yl]formamido}propanoic acid], for which the EC50 came out at 424 nM. As for `COc1cccc(OC)c1-c1cc(C(=O)N[C@@H](CCc2ccccc2)C(=O)Nc2nnn[nH]2)nn1C1CCCC1` [compound 395, (2S)-2-{[1-cyclopentyl-5-(2,6-dimethoxyphenyl)-1H-pyrazol-3-yl]formamido}-4-phenyl-N-(1H-1,2,3,4-tetrazol-5-yl)butanamide], the figure is above 10000 nM. Regarding `COc1cccc(OC)c1-c1cc(C(=O)N[C@@H](CCc2ccccc2)C(=O)Nc2nccs2)nn1C1CCCC1` [compound 396, (2S)-2-{[1-cyclopentyl-5-(2,6-dimethoxyphenyl)-1H-pyrazol-3-yl]formamido}-4-phenyl-N-(1,3-thiazol-2-yl)butanamide], the EC50 is above 10000 nM. Next, `CC(C)c1ccccc1-c1cc(C(=O)N[C@@H](CCN2CCCCC2)CC(=O)NC2CCC2)nn1C1CCCC1` [compound 397, (3S)-N-cyclobutyl-3-({1-cyclopentyl-5-[2-(propan-2-yl)phenyl]-1H-pyrazol-3-yl}formamido)-5-(piperidin-1-yl)pentanamide]: 140 nM. Take `COc1cccc(OC)c1-c1cc(C(=O)N[C@H](CCNC2CCC2)CCN2CCCCC2)nn1C1CCCC1` [compound 398, N-[(3R)-1-(cyclobutylamino)-5-(piperidin-1-yl)pentan-3-yl]-1-cyclopentyl-5-(2,6-dimethoxyphenyl)-1H-pyrazole-3-carboxamide]: the EC50 was above 10000 nM.

As for `CCc1cc(F)ccc1-c1cc(C(=O)N[C@@H](CCN2CCCCC2)CC(=O)NC2CCC2)nn1C1CCCC1` [compound 399, (3S)-N-cyclobutyl-3-{[1-cyclopentyl-5-(2-ethyl-4-fluorophenyl)-1H-pyrazol-3-yl]formamido}-5-(piperidin-1-yl)pentanamide], the EC50 worked out at 264 nM. As for `CC(F)(F)c1ccccc1-c1cc(C(=O)N[C@@H](CCN2CCCCC2)CC(=O)NC2CCC2)nn1C1CCCC1` [compound 400, (3S)-N-cyclobutyl-3-({1-cyclopentyl-5-(2-(1,1-difluoroethyl)phenyl]-1H-pyrazol-3-yl]formamido)-5-(piperidin-1-yl)pentanamide], the 50% effective concentration (EC50) came out at 46 nM. `COc1cccc(OC)c1-c1cc(C(=O)N[C@H](CC(=O)O)Cc2ccccc2)nn1C1CCCC1` [compound 401, (3S)-3-{[1-cyclopentyl-5-(2,6-dimethoxyphenyl)-1H-pyrazol-3-yl]formamido}-4-phenylbutanoic acid]: the EC50 is above 10000 nM. Take `COc1cccc(OC)c1-c1cc(C(=O)N[C@H](CC(=O)Nc2nccs2)Cc2ccccc2)nn1C1CCCC1` [compound 402, (3S)-3-{[1-cyclopentyl-5-(2,6-dimethoxyphenyl)-1H-pyrazol-3-yl]formamido}-4-phenyl-N-(1,3-thiazol-2-yl)butanamide]: the EC50 stood at 203 nM. Next, `CCc1ccccc1-c1cc(C(=O)N[C@@H](CCN2CCCCC2)CC(=O)O)nn1C1CCCC1` [compound 403, (3S)-3-{[1-cyclopentyl-5-(2-ethylphenyl)-1H-pyrazol-3-yl]formamido}-5-(piperidin-1-yl)pentanoic acid hydrochloride]: 42 nM; `CCc1ccccc1-c1cc(C(=O)N[C@@H](CCN2CCCC(F)(F)C2)CC(=O)O)nn1C1CCCC1` [compound 404, (3S)-3-{[1-cyclopentyl-5-(2-ethylphenyl)-1H-pyrazol-3-yl]formamido}-5-(3,3-difluoropiperidin-1-yl)pentanoic acid]: 65 nM. As for `CCc1ccccc1-c1cc(C(=O)N[C@@H](CCN2CCC(F)(F)CC2)CC(=O)O)nn1C1CCCC1` [compound 405, (3S)-3-{[1-cyclopentyl-5-(2-ethylphenyl)-1H-pyrazol-3-yl]formamido}-5-(4,4-difluoropiperidin-1-yl)pentanoic acid], the EC50 is 227 nM. Take `CCc1ccccc1-c1cc(C(=O)N[C@@H](CCN2CCCCC2)CC(=O)Nc2nccs2)nn1C1CCCC1` [compound 406, (3S)-3-{[1-cyclopentyl-5-(2-ethylphenyl)-1H-pyrazol-3-yl]formamido}-5-(piperidin-1-yl)-N-(1,3-thiazol-2-yl)pentanamide]: the EC50 was 22 nM. For `O=C(C[C@H](CCN1CCCCC1)NC(=O)c1cc(-c2ccccc2Cl)n(C2CCCC2)n1)NC1CCC1` [compound 407, (3S)-3-{[5-(2-chlorophenyl)-1-cyclopentyl-1H-pyrazol-3-yl]formamido}-N-cyclobutyl-5-(piperidin-1-yl)pentanamide], the EC50 stood at 162 nM.

Consider `O=C(C[C@H](CCN1CCCCC1)NC(=O)c1cc(-c2ccccc2C(F)(F)F)n(C2CCCC2)n1)NC1CCC1` [compound 408, (3S)-N-cyclobutyl-3-({1-cyclopentyl-5-[2-(trifluoromethyl)phenyl]-1H-pyrazol-3-yl]formamido)-5-(piperidin-1-yl)pentanamide], for which the EC50 was 64 nM. As for `CCc1ccccc1-c1cc(C(=O)N[C@@H](CCN2CCC(F)(F)CC2)CC(=O)Nc2nccs2)nn1C1CCCC1` [compound 409, (3S)-3-{[1-cyclopentyl-5-(2-ethylphenyl)-1H-pyrazol-3-yl]formamido}-5-(4,4-difluoropiperidin-1-yl)-N-(1,3-thiazol-2-yl)pentanamide], the figure is 12.5 nM; as for `CCc1ccccc1-c1cc(C(=O)N[C@@H](CCN2CCC(F)(F)CC2)CC(=O)NC2CCC2)nn1C1CCCC1` [compound 411, (3S)-N-cyclobutyl-3-{[1-cyclopentyl-5-(2-ethylphenyl)-1H-pyrazol-3-yl]formamido}-5-(4,4-difluoropiperidin-1-yl)pentanamide], 14.5 nM.

For the origin of these results see patent US11535630B2, “Apelin receptor (APJ) agonists and uses thereof” (Research Triangle Institute, priority 2015, dated 2022).
